According to PMC4579270, “Identification and Characterization of an Irreversible Inhibitor of CDK2” (Chemistry & Biology, 2015):

Experiments:
Test in all cases: Dundee protein kinase screen
Format in all cases: biochemical
RSK1 = RSK1 (Homo sapiens, UniProt Q15418); conditions: RSK1, 1µM; read-out: %Remaining activity at 1µM NU6300
Description: (§1) Prior to determining its cellular activity, we carried out a screen to assess its selectivity against a panel of 131 protein kinases under conditions that would not distinguish between a reversible or irreversible mode of action. […] These 13 kinases and 29 additional kinases, selected for their known sensitivity to other inhibitors within the purine series, were then tested in a modified screening format in which the assay was repeated following a 4-hr pre-incubation (Table S3B). […] However, conformational flexibility around the active site may promote such an interaction with a residue from another part of the structure ([Martin et al., 2012]).
(§2) Table S3, Related to Figure 4. NCL-0006300 protein kinase selectivity. (A) NU6300 was tested at a single concentration of 1µM against 131 protein kinases present in a Dundee protein kinase screen (Bain et al., 2007). Values given are % activity remaining and are the average of duplicate measurements: 0-25% (red), 26-50% (yellow), 51-80% (black) and above 81% (green). The kinase domain sequences (as defined by UniProt) of […]
(§3) have a lysine residue at a position close to CDK2 Lys88 or Lys89. However, in the structure of tyrosine-protein kinase BTK (PDB ID: 3GEN) the residue equivalent to CDK2 Asp86 is Cys481 and therefore there is the potential for a covalent adduct to be formed through this side chain. Ephrin type-B receptor 3 (UniProt entry P54753) also encodes a cysteine residue (Cys717) that by sequence alignment would be predicted to be close to the CDK2 lysine pair. (B) Selected kinases were re-tested in the Dundee kinase screen against NU6300 at a single concentration of 0.5 µM both in the standard assay format and following a 4 hour pre-incubation in the presence of NU6300. Kinases which have very low activity after the 4 hour incubation so that results might not be wholly reliable are boxed in salmon. Kinases where the activity after a 4 hour pre-incubation is < 50% that in the standard assay format are highlighted in red.

p38δ MAPK = p38δ MAPK (Homo sapiens, UniProt O15264); conditions: read-out: %Remaining activity at 1µM NU6300
Description: as §1, §2, §3

CK2 = CK2 (Homo sapiens, UniProt P68400); conditions: CK2, 1µM; read-out: %Remaining activity at 1µM NU6300
Sequence of CK2 (P68400 whole entry): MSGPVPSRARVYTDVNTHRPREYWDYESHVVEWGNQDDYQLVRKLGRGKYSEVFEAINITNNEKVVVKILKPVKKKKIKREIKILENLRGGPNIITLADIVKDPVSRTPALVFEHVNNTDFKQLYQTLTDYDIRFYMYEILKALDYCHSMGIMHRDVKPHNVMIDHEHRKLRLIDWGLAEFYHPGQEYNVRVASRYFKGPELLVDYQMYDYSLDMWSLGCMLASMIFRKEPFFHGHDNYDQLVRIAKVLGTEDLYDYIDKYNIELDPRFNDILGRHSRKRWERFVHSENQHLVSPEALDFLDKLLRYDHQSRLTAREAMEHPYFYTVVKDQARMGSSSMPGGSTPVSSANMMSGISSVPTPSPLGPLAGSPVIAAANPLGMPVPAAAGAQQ
Description: as §1, §2, §3

CAMKKβ = CAMKKβ (Homo sapiens, UniProt Q96RR4); conditions: read-out: %Remaining activity at 1µM NU6300
Description: as §1, §2, §3

ERK8 = molecular target: T1, ERK8 (Homo sapiens, UniProt Q8TD08); conditions: ERK8, 1µM; read-out: %Remaining activity at 1µM NU6300
T1 sequence (Q8TD08 1-544): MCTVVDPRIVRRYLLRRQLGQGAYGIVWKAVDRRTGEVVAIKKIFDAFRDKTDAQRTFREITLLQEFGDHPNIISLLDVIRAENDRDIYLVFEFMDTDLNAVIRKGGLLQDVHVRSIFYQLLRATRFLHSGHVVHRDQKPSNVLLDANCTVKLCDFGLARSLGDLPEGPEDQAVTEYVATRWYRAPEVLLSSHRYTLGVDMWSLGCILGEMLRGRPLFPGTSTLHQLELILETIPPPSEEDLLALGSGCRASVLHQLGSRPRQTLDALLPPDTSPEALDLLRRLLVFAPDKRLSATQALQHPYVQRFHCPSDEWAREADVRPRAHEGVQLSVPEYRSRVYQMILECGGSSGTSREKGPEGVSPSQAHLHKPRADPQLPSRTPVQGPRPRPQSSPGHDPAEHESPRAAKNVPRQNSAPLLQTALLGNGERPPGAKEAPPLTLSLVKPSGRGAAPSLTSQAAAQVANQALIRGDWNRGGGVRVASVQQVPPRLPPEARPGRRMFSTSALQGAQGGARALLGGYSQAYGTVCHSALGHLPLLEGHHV
Description: as §1, §2, §3

PIM3 = PIM3 (Homo sapiens, UniProt Q86V86); conditions: PIM3, 1µM; read-out: %Remaining activity at 1µM NU6300
Description: as §1, §2, §3

MNK1 = MNK1 (Homo sapiens, UniProt Q9BUB5); conditions: MNK1, 1µM; read-out: %Remaining activity at 1µM NU6300
Description: as §1, §2, §3

HIPK2 = HIPK2 (Homo sapiens, UniProt Q9H2X6); conditions: HIPK2, 1µM; read-out: %Remaining activity at 1µM NU6300
Sequence of HIPK2 (Q9H2X6 whole entry): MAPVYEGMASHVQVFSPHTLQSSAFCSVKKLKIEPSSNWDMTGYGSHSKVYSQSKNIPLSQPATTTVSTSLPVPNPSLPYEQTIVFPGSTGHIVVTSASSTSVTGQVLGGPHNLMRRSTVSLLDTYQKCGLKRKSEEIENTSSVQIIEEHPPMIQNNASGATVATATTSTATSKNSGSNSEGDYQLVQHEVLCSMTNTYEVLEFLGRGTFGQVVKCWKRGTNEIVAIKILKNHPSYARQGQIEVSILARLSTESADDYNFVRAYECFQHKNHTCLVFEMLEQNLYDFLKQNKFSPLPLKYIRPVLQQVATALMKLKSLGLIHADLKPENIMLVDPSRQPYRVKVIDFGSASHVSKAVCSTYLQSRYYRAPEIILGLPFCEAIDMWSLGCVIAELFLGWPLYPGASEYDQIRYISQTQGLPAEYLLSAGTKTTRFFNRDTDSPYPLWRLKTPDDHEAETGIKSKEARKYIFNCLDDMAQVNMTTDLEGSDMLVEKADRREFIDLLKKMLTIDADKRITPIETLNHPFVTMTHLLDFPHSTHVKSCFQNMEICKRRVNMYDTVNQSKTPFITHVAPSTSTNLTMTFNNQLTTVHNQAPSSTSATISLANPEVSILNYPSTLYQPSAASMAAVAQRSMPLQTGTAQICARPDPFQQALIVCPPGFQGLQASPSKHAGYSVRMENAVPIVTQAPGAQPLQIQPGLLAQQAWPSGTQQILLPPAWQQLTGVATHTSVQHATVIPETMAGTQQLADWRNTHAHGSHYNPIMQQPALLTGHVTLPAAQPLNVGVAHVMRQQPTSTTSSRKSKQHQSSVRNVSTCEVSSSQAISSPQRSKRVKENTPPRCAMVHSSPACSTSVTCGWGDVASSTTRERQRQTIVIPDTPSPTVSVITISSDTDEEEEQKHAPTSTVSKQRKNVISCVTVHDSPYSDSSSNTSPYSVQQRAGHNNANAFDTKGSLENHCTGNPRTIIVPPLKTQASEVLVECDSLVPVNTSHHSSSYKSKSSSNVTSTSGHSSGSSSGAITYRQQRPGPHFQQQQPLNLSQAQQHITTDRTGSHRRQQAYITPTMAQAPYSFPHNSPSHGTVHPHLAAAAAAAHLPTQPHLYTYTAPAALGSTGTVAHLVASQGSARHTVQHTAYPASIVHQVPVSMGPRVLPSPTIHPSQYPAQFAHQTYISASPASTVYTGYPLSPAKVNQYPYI
Description: as §1, §2, §3

BRSK1 = BRSK1 (Homo sapiens, UniProt Q8TDC3); conditions: BRSK1, 1µM; read-out: %Remaining activity at 1µM NU6300
Sequence of BRSK1 (Q8TDC3 whole entry): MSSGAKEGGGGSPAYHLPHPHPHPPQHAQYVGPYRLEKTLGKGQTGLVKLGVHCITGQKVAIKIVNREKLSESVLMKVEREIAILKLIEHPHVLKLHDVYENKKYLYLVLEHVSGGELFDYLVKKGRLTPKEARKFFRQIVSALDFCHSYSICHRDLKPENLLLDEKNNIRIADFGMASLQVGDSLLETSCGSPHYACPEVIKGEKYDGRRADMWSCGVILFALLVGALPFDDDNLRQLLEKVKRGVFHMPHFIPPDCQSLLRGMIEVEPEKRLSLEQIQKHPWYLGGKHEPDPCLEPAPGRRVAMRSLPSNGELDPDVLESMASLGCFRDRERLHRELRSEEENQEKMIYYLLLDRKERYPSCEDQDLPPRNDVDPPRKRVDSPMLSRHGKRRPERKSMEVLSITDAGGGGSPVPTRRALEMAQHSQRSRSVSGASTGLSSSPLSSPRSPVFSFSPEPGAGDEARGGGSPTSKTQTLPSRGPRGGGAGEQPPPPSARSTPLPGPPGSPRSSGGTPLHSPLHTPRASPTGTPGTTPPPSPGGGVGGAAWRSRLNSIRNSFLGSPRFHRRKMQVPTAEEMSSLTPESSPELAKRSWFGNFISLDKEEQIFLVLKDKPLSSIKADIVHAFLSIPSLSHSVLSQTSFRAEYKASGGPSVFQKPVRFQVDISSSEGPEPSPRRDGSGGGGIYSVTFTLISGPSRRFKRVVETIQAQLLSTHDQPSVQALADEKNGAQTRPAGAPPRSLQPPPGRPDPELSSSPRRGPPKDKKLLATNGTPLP
Description: as §1, §2, §3

NEK6 = NEK6 (Homo sapiens, UniProt Q9HC98); conditions: NEK6, 1µM; read-out: %Remaining activity at 1µM NU6300
Sequence of NEK6 (Q9HC98 whole entry): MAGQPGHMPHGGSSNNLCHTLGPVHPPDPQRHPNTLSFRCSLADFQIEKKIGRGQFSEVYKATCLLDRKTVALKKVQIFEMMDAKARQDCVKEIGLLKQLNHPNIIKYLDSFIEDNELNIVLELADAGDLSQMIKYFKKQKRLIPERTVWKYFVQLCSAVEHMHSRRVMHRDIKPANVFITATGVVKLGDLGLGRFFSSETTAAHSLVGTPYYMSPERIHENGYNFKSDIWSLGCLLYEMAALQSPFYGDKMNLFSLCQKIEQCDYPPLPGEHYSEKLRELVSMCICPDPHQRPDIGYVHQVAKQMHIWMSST
Description: as §1, §2, §3

RIPK2 = RIPK2 (Homo sapiens, UniProt O43353); conditions: RIPK2, 1µM; read-out: %Remaining activity at 1µM NU6300
Description: as §1, §2, §3

EPH-B1 = EPH-B1 (Homo sapiens, UniProt P54762); conditions: EPH-B1, 1µM; read-out: %Remaining activity at 1µM NU6300
Sequence of EPH-B1 (P54762 18-984): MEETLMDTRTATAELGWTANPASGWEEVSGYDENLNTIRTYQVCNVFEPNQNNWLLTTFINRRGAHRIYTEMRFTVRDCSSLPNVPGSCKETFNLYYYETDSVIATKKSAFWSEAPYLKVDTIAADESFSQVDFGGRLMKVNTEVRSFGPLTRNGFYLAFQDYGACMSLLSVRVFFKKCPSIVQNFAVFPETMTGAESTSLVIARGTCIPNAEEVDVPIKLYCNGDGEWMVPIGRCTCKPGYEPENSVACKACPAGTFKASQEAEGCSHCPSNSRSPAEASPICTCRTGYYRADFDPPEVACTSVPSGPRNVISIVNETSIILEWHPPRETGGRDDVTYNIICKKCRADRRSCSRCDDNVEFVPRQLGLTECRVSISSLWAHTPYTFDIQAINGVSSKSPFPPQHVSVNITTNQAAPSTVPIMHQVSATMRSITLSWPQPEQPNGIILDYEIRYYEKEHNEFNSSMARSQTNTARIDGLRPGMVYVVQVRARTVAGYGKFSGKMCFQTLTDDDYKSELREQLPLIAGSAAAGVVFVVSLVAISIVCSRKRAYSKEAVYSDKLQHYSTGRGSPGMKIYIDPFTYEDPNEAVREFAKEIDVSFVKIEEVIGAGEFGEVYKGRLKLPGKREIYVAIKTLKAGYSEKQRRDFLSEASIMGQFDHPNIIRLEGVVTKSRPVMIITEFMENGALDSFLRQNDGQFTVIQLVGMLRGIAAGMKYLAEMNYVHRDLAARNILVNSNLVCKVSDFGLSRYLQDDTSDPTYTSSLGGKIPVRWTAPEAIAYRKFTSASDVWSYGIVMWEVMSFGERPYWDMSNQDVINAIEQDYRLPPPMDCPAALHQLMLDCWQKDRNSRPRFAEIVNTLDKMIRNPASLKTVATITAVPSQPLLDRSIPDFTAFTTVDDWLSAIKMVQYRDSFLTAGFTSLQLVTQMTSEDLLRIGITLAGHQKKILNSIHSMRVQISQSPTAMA
Description: as §1, §2, §3

p38γ MAPK = p38γ MAPK (Homo sapiens, UniProt P53778); conditions: read-out: %Remaining activity at 1µM NU6300
Description: as §1, §2, §3

PKA = PKA (Homo sapiens, UniProt P17612); conditions: read-out: %Remaining activity at 1µM NU6300
Description: as §1, §2, §3

Sequence of RSK1 (Q15418 whole entry): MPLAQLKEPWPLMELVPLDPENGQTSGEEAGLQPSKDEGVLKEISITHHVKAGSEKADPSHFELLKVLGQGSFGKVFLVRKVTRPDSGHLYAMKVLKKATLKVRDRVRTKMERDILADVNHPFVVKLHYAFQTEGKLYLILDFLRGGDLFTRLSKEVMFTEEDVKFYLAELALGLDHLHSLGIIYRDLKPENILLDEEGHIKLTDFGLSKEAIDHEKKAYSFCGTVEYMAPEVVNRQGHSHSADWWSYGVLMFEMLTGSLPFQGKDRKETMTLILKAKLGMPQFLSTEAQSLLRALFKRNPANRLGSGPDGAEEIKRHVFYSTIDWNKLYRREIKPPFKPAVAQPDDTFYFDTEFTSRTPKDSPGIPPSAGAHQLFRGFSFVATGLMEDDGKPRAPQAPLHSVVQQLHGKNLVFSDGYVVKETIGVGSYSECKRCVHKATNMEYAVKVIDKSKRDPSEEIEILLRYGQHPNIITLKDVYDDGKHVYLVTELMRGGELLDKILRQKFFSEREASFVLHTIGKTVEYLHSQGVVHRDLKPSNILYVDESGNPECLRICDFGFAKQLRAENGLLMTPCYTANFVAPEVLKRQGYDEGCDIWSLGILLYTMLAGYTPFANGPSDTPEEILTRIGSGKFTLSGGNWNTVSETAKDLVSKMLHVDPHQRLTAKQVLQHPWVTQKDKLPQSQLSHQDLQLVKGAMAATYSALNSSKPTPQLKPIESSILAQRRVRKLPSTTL

## C=CS(=O)(=O)c1ccc(Nc2nc(OCC3CCCCC3)c3nc[nH]c3n2)cc1 [NU6300, 6-(cyclohexylmethoxy)-N-(4-(vinylsulfonyl)phenyl)-9H-purin-2-amine]
RSK1
  remaining activity at 1 µM: 50%
p38δ MAPK
  remaining activity at 1 µM: 92%
CK2
  remaining activity at 1 µM: 91%
CAMKKβ
  remaining activity at 1 µM: 73%
ERK8
  remaining activity at 1 µM: 24%
PIM3
  remaining activity at 1 µM: 56%
MNK1
  remaining activity at 1 µM: 102%
HIPK2
  remaining activity at 1 µM: 61%
BRSK1
  remaining activity at 1 µM: 79%
NEK6
  remaining activity at 1 µM: 70%
RIPK2
  remaining activity at 1 µM: 86%
EPH-B1
  remaining activity at 1 µM: 78%
p38γ MAPK
  remaining activity at 1 µM: 104%
PKA
  remaining activity at 1 µM: 88%
